The term Ki denotes the equilibrium dissociation constant of an inhibitor or competing ligand from its target.

Counter-ions that a name gives are not always drawn. Like-named read-outs stand apart in the source and are kept apart here.

The test has as its target dopamine D2 receptor (Rattus norvegicus, UniProt P61169). In words: Receptor binding assay, 3H-ADTN displacement on rat striatal membranes (affinity for the dopamine D2 receptor). More on the design: species or system rat (Sprague Dawley).
[1] abbreviates: rat striatal membranes, 1 nM 3H-ADTN, 0.1 μM SCH 23390, 40 min at 25° C., non-specific binding with 50 nM spiperone, read-out: Ki, affinity of the test substances for the dopamine D2 receptor.

dopamine D2 receptor, sequence (P61169 whole entry): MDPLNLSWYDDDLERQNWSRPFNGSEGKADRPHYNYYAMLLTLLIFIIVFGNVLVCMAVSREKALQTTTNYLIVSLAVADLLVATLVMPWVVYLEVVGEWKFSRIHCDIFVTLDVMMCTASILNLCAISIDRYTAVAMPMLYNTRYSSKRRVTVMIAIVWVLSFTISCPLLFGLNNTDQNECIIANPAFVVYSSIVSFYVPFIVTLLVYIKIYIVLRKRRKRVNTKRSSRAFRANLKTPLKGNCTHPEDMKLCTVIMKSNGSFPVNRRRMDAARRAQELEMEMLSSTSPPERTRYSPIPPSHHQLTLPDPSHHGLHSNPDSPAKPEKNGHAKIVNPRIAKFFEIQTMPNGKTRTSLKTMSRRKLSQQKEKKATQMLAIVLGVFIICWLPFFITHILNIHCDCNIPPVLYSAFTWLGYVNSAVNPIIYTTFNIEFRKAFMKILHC
Method: Striata from rats (Sprague Dawley, Charles River) were homogenized immediately after removal in 0.32M sucrose solution (0° C.). The homogenate was filtered through gauze, the filtrate was centrifuged at 1000 ×g (5 min at 4° C.) and the resulting supernatant was centrifuged at 40000 ×g (4° C., 10 min). The residue (membranes) was taken up in incubation buffer (50 mM tris-HCl, 1 mM MgCl2 and 0.1% ascorbic acid, pH 7.4) and incubated at 37° C. for 20 min. The residue was subsequently washed 2× with incubation buffer by resuspension and recentrifugation. The membranes were frozen in portions in liquid nitrogen.
The assay mixtures (1 ml) were composed of membranes (380 μg of protein), 1 nM ^3 H-ADTN (NEN, Dreieich Germany, specific radioactivity 1.4 TBq/mmol) and 0.1 μM SCH 23390 (total binding) or a) with the addition of 50 nM spiperone (non-specific binding) or b) with test substance. The mixtures were prepared in triplicate.
After the incubation (40 min at 25° C.) the mixtures were filtered through glass fiber filters (Whatman GF/B) and briefly washed with ice-cold washing buffer (tris-HCl, pH 7.4). The radioactivity retained on the filters was determined by liquid scintillation counting. The non-specific binding comprised about 40-50% of the total binding.
The evaluation of the competition plots and the determination of the dissociation constant took place by iterative non-linear regression analysis based on the "ligand" program (Muson and Rodbard: Anal. Biochem. 107 (1980) 220).

For `CCCN(CCSc1sc(N)nc1C)CCc1ccccc1` [Example 5, 2-Amino-4-methyl-5-[2-(N-phenethyl-N-propylamino)-ethylthio]thiazole hydrochloride], the Ki under setting [1] turned out to be 18 nM.

With `CCCN(CCCSc1sc(N)nc1C)CCc1ccccc1` [Example 7, 2-Amino-4-methyl-5-[3-(N-phenethyl-N-propylamino)propylthio]thiazole tartrate], the Ki under setting [1] is 9 nM.

`Cc1nc(N)sc1SCCN1CC=C(c2ccccc2)CC1` [Example 2, 2-Amino-5-[2-(1,2,3,6-tetrahydro-4-phenylpyridinyl)-ethylthio]-4-methylthiazole hydrochloride] had a Ki of 3 nM.

On to `Cc1nc(N)sc1SCCN1CCC(c2ccccc2)CC1` [Example 1, 2-Amino-4-methyl-5-[2-(4-phenylpiperidinyl)ethyl-thio]thiazole hydrochloride], for which the Ki under setting [1] came to 12 nM.

Regarding `Cc1nc(N)sc1SCCN1CCN(c2ccccc2)CC1` [Example 3, 2-Amino-4-methyl-5-[2-(4-phenylpiperazinyl)ethylthio]thiazole hydrochloride], the Ki under setting [1] was 19 nM.

The values are drawn from US5418235A, “Aminoalkyl-substituted 5-mercaptothiazoles, the preparation and use thereof” (BASF Aktiengesellschaft, priority 1991, dated 1995).
